Experimental data: patent publication US20240252529A1, “ANTIVIRAL PHARMACEUTICAL COMPOSITION” (MARINOMED BIOTECH AG, priority 2020, published 2024)

Test system: SARS-CoV-2 spike glycoprotein pseudotyped lentivirus
Assay type: cell-based
Conditions: comparative polymers at 100 μg/ml; FIG. 3

## O=C[C@H](O)[C@@H](O)[C@@H](OS(=O)(=O)O)[C@H](O)CO [Gal-4-SO4, galactose-4-sulphate]
  protection of target cells against infection: only poorly effective
